From patent US9302999B2, “Substituted triazoles as herbicides” (E. I. DU PONT DE NEMOURS AND COMPANY, priority 2012, dated 2016)

Assays:
Type in all cases: in vivo
[1] = test system: nutsedge, yellow (yellow nutsedge, Cyperus esculentus); assay: Test C pre-/postemergence: nutsedge, yellow
Outline: (§1)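 Preemergence on seeds in loam/sand, postemergence on 2–18 cm (1–4-leaf) plants in peat-based medium; compounds in non-phytotoxic solvent with surfactant. After 13–15 days in greenhouse, visual rating versus controls, 0 (no effect) to 100 (complete control).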

[2] = test system: sedge, umbrella (small-flower umbrella sedge Cyperus difformis); assay: Test B flooded paddy: sedge, umbrella; conditions: Flood, applied to paddy water at 2-leaf stage, visually evaluated after 13 to 15 days
Outline: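 Plants were grown to the 2-leaf stage, then pots were flooded to 3 cm above the soil and compounds were applied directly into the paddy water. Water depth was held for the whole test; after 13 to 15 days in a greenhouse, injury was visually rated against untreated controls (0 = no effect, 100 = complete control).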

[3] = test system: pigweed (Amaranthus retroflexus); assay: Test C pre-/postemergence: pigweed
Outline: as §1

[4] = test system: chickweed (common chickweed, Stellaria media); assay: Test C postemergence: chickweed
Outline: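 Greenhouse pot test; foliar postemergence treatment at 1- to 4-leaf stage. Rated visually at 13 to 15 days on a 0–100 control scale relative to untreated plants.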

[5] = test system: velvetleaf (Abutilon theophrasti); assay: Test A pre-/postemergence: velvetleaf
Outline: (§2)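 Whole-plant greenhouse assay in loam/sand. Preemergence directed soil spray plus simultaneous postemergence spray (one- to two-leaf stage, 2–10 cm). Rated visually ~10 days later, 0 = no effect, 100 = complete control.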

corn (Zea mays) = assay: Test A pre-/postemergence: corn
Outline: as §2

[6] = test system: wheat (Triticum aestivum); assay: Test A pre-/postemergence: wheat
Outline: as §2

[7] = test system: winter wheat (Triticum aestivum); assay: Test C pre-/postemergence: winter wheat
Outline: as §1

[8] = test system: foxtail, giant (giant foxtail, Setaria faberii); assay: Test A pre-/postemergence: foxtail, giant
Outline: as §2

Oilseed Rape = assay: Test C pre-/postemergence: oilseed rape
[9] = Postemergence, 31 g ai/ha, scale 0 to 100 (0 no effect, 100 complete control)
[10] = Postemergence, 62 g ai/ha, scale 0 to 100 (0 no effect, 100 complete control)
[11] = Postemergence, 125 g ai/ha, scale 0 to 100, 0 no effect, 100 complete control
[12] = Postemergence, 250 g ai/ha, scale 0 to 100 (0 no effect, 100 complete control)
[13] = Preemergence, 31 g ai/ha, scale 0 (no effect) to 100 (complete control)
[14] = Preemergence, 62 g ai/ha, scale of 0 to 100, 0 is no effect, 100 is complete control
[15] = Preemergence, 250 g ai/ha, scale 0 to 100, 0 no effect, 100 complete control
[16] = Preemergence, 125 g ai/ha, scale 0 to 100, 0 no effect, 100 complete control
[17] = 31 g ai/ha, scale 0 to 100 (0 no effect, 100 complete control)
[18] = 62 g ai/ha, scale 0 to 100 (0 no effect, 100 complete control)
[19] = Postemergence, 125 g ai/ha, 0 to 100 scale, 0 is no effect, 100 is complete control
[20] = Postemergence, 500 g ai/ha, 0 to 100 scale, 0 is no effect, 100 is complete control
[21] = Preemergence, 125 g ai/ha, 0 to 100 scale where 0 is no effect and 100 is complete control
[22] = Preemergence, 500 g ai/ha, 0 to 100 scale (0 no effect, 100 complete control)
[23] = 125 g ai/ha, scale 0 to 100, 0 no effect, 100 complete control

CCCc1nn(-c2ccc(C(F)(F)F)cc2)nc1Oc1ccnc(C(F)(F)F)c1 [Compound 170]
Plant response rating, Nutsedge, Yellow [1, 9]: 5
Plant response rating, Nutsedge, Yellow [1, 10]: 5
Plant response rating, Nutsedge, Yellow [1, 11]: 5
Plant response rating, Nutsedge, Yellow [1, 12]: 10
Plant response rating, Nutsedge, Yellow [1, 13]: 0
Plant response rating, Nutsedge, Yellow [1, 14]: 5
Plant response rating, Nutsedge, Yellow [1, 15]: 5
Plant response rating, Sedge, Umbrella (0 to 100 scale, 0 is no effect, 100 is complete control) ([2]; 250 g ai/ha): 90
Plant response rating, Pigweed [3, 9]: 100
Plant response rating, Pigweed [3, 10]: 100
Plant response rating, Pigweed [3, 11]: 100
Plant response rating, Pigweed [3, 12]: 100
Plant response rating, Pigweed [3, 13]: 100
Plant response rating, Pigweed [3, 14]: 100
Plant response rating, Pigweed [3, 16]: 100
Plant response rating, Pigweed [3, 15]: 100
Plant response rating, Chickweed [4, 17]: 75
Plant response rating, Chickweed [4, 18]: 95
Plant response rating, Chickweed ([4]; 250 g ai/ha, scale 0 to 100): 95
Plant response rating, Velvetleaf [5, 19]: 100
Velvetleaf plant response rating [5, 20]: 100
Plant response rating, Velvetleaf [5, 21]: 90
Plant response rating, Velvetleaf [5, 22]: 100
Plant response rating, Corn (corn (Zea mays); [19]): 30
Corn plant response rating (corn (Zea mays); [20]): 50
Plant response rating, Corn (corn (Zea mays); [21]): 30
Plant response rating, Corn (corn (Zea mays); [22]): 40
Plant response rating, Wheat [6, 19]: 40
Wheat plant response rating [6, 20]: 50
Plant response rating, Wheat [6, 21]: 60
Plant response rating, Wheat [6, 22]: 80
Plant response rating, Wheat [7, 9]: 10
Plant response rating, Wheat [7, 10]: 20
Plant response rating, Wheat [7, 11]: 35
Plant response rating, Wheat [7, 12]: 35
Plant response rating, Wheat [7, 13]: 10
Plant response rating, Wheat [7, 14]: 40
Plant response rating, Wheat [7, 16]: 60
Plant response rating, Wheat [7, 15]: 60
Plant response rating, Foxtail, Giant [8, 19]: 90
Foxtail, Giant plant response rating [8, 20]: 90
Plant response rating, Foxtail, Giant [8, 21]: 100
Plant response rating, Foxtail, Giant [8, 22]: 100
Plant response rating, Oilseed Rape (Oilseed Rape; [9]): 30
Plant response rating, Oilseed Rape (Oilseed Rape; [15]): 100

CCc1nn(-c2ccc(F)c(F)c2)nc1Oc1ccnc(C(F)(F)F)c1 [Compound 171]
Plant response rating, Nutsedge, Yellow [1, 9]: 5
Plant response rating, Nutsedge, Yellow [1, 10]: 5
Plant response rating, Nutsedge, Yellow [1, 11]: 10
Plant response rating, Nutsedge, Yellow [1, 12]: 10
Plant response rating, Nutsedge, Yellow [1, 13]: 0
Plant response rating, Nutsedge, Yellow [1, 14]: 0
Plant response rating, Nutsedge, Yellow [1, 16]: 0
Plant response rating, Nutsedge, Yellow [1, 15]: 0
Plant response rating, Sedge, Umbrella (0 to 100 scale, 0 is no effect, 100 is complete control) ([2]; 250 g ai/ha): 85
Plant response rating, Pigweed [3, 9]: 70
Plant response rating, Pigweed [3, 10]: 90
Plant response rating, Pigweed [3, 11]: 90
Plant response rating, Pigweed [3, 12]: 98
Plant response rating, Pigweed [3, 13]: 60
Plant response rating, Pigweed [3, 14]: 100
Plant response rating, Pigweed [3, 16]: 100
Plant response rating, Pigweed [3, 15]: 100
Plant response rating, Chickweed [4, 17]: 50
Plant response rating, Chickweed [4, 18]: 70
Plant response rating, Chickweed [4, 23]: 95
Plant response rating, Chickweed ([4]; 250 g ai/ha, scale 0 to 100): 100
Plant response rating, Velvetleaf [5, 19]: 70
Velvetleaf plant response rating [5, 20]: 90
Plant response rating, Velvetleaf [5, 21]: 60
Plant response rating, Velvetleaf [5, 22]: 80
Plant response rating, Corn (corn (Zea mays); [19]): 20
Corn plant response rating (corn (Zea mays); [20]): 30
Plant response rating, Corn (corn (Zea mays); [21]): 10
Plant response rating, Corn (corn (Zea mays); [22]): 30
Plant response rating, Wheat [6, 19]: 30
Wheat plant response rating [6, 20]: 40
Plant response rating, Wheat [6, 21]: 10
Plant response rating, Wheat [6, 22]: 60
Plant response rating, Wheat [7, 9]: 5
Plant response rating, Wheat [7, 10]: 10
Plant response rating, Wheat [7, 11]: 20
Plant response rating, Wheat [7, 12]: 20
Plant response rating, Wheat [7, 13]: 0
Plant response rating, Wheat [7, 14]: 0
Plant response rating, Wheat [7, 16]: 5
Plant response rating, Wheat [7, 15]: 45
Plant response rating, Foxtail, Giant [8, 19]: 80
Foxtail, Giant plant response rating [8, 20]: 90
Plant response rating, Foxtail, Giant [8, 21]: 100
Plant response rating, Foxtail, Giant [8, 22]: 100
Plant response rating, Oilseed Rape (Oilseed Rape; [9]): 5
Plant response rating, Oilseed Rape (Oilseed Rape; [15]): 90

CCCc1nn(-c2ccc(F)c(F)c2)nc1Oc1ccnc(C(F)(F)F)c1 [Compound 172]
Plant response rating, Nutsedge, Yellow [1, 9]: 10
Plant response rating, Nutsedge, Yellow [1, 10]: 10
Plant response rating, Nutsedge, Yellow [1, 11]: 15
Plant response rating, Nutsedge, Yellow [1, 12]: 15
Plant response rating, Nutsedge, Yellow [1, 13]: 0
Plant response rating, Nutsedge, Yellow [1, 14]: 5
Plant response rating, Nutsedge, Yellow [1, 16]: 5
Plant response rating, Nutsedge, Yellow [1, 15]: 5
Plant response rating, Sedge, Umbrella (0 to 100 scale, 0 is no effect, 100 is complete control) ([2]; 250 g ai/ha): 75
Plant response rating, Pigweed [3, 9]: 98
Plant response rating, Pigweed [3, 10]: 98
Plant response rating, Pigweed [3, 11]: 98
Plant response rating, Pigweed [3, 12]: 98
Plant response rating, Pigweed [3, 13]: 100
Plant response rating, Pigweed [3, 14]: 100
Plant response rating, Pigweed [3, 16]: 100
Plant response rating, Pigweed [3, 15]: 100
Plant response rating, Chickweed [4, 17]: 65
Plant response rating, Chickweed [4, 18]: 85
Plant response rating, Chickweed [4, 23]: 90
Plant response rating, Chickweed ([4]; 250 g ai/ha, scale 0 to 100): 90
Plant response rating, Velvetleaf [5, 19]: 90
Velvetleaf plant response rating [5, 20]: 100
Plant response rating, Velvetleaf [5, 21]: 80
Plant response rating, Velvetleaf [5, 22]: 90
Plant response rating, Corn (corn (Zea mays); [19]): 30
Corn plant response rating (corn (Zea mays); [20]): 50
Plant response rating, Corn (corn (Zea mays); [21]): 30
Plant response rating, Corn (corn (Zea mays); [22]): 60
Plant response rating, Wheat [6, 19]: 40
Wheat plant response rating [6, 20]: 50
Plant response rating, Wheat [6, 21]: 50
Plant response rating, Wheat [6, 22]: 70
Plant response rating, Wheat [7, 9]: 10
Plant response rating, Wheat [7, 10]: 20
Plant response rating, Wheat [7, 11]: 25
Plant response rating, Wheat [7, 12]: 30
Plant response rating, Wheat [7, 13]: 15
Plant response rating, Wheat [7, 14]: 40
Plant response rating, Wheat [7, 16]: 45
Plant response rating, Wheat [7, 15]: 45
Plant response rating, Foxtail, Giant [8, 19]: 90
Foxtail, Giant plant response rating [8, 20]: 90
Plant response rating, Foxtail, Giant [8, 21]: 100
Plant response rating, Foxtail, Giant [8, 22]: 100
Plant response rating, Oilseed Rape (Oilseed Rape; [9]): 50
Plant response rating, Oilseed Rape (Oilseed Rape; [15]): 100

CCCc1nn(-c2ccc(F)cc2F)nc1Oc1ccnc(C(F)(F)F)c1 [Compound 179]
Plant response rating, Nutsedge, Yellow [1, 9]: 5
Plant response rating, Nutsedge, Yellow [1, 10]: 5
Plant response rating, Nutsedge, Yellow [1, 11]: 10
Plant response rating, Nutsedge, Yellow [1, 12]: 10
Plant response rating, Nutsedge, Yellow [1, 13]: 0
Plant response rating, Nutsedge, Yellow [1, 14]: 0
Plant response rating, Nutsedge, Yellow [1, 16]: 0
Plant response rating, Nutsedge, Yellow [1, 15]: 5
Plant response rating, Sedge, Umbrella (0 to 100 scale, 0 is no effect, 100 is complete control) ([2]; 125 g ai/ha): 75
Plant response rating, Pigweed [3, 9]: 95
Plant response rating, Pigweed [3, 10]: 98
Plant response rating, Pigweed [3, 11]: 98
Plant response rating, Pigweed [3, 12]: 100
Plant response rating, Pigweed [3, 13]: 100
Plant response rating, Pigweed [3, 14]: 100
Plant response rating, Pigweed [3, 16]: 100
Plant response rating, Pigweed [3, 15]: 100
Plant response rating, Chickweed [4, 17]: 75
Plant response rating, Chickweed [4, 18]: 80
Plant response rating, Chickweed [4, 23]: 85
Plant response rating, Chickweed ([4]; 250 g ai/ha, scale 0 to 100): 95
Plant response rating, Velvetleaf [5, 19]: 90
Velvetleaf plant response rating [5, 20]: 100
Plant response rating, Velvetleaf [5, 21]: 80
Plant response rating, Velvetleaf [5, 22]: 100
Plant response rating, Corn (corn (Zea mays); [19]): 20
Corn plant response rating (corn (Zea mays); [20]): 30
Plant response rating, Corn (corn (Zea mays); [21]): 20
Plant response rating, Corn (corn (Zea mays); [22]): 30
Plant response rating, Wheat [6, 19]: 30
Wheat plant response rating [6, 20]: 40
Plant response rating, Wheat [6, 21]: 20
Plant response rating, Wheat [6, 22]: 50
Plant response rating, Wheat [7, 9]: 5
Plant response rating, Wheat [7, 10]: 10
Plant response rating, Wheat [7, 11]: 15
Plant response rating, Wheat [7, 12]: 15
Plant response rating, Wheat [7, 13]: 5
Plant response rating, Wheat [7, 14]: 15
Plant response rating, Wheat [7, 16]: 50
Plant response rating, Wheat [7, 15]: 55
Plant response rating, Foxtail, Giant [8, 19]: 90
Foxtail, Giant plant response rating [8, 20]: 90
Plant response rating, Foxtail, Giant [8, 21]: 100
Plant response rating, Foxtail, Giant [8, 22]: 100
Plant response rating, Oilseed Rape (Oilseed Rape; [9]): 30
Plant response rating, Oilseed Rape (Oilseed Rape; [15]): 100
